One data set concerns the target hERG potassium channel (Homo sapiens, UniProt Q12809). In words: hERG experiment (QPatch HTX whole-cell, CHO-hERG cells). In kind it is cell-based. The settings on record: room temperature, tested at 0.24 to 30.00 μM, read-out: hERG inhibitory activity (IC50). As for the experimental part:
The cells stably expressing hERG potassium channel used in the experiment were derived from CHO-hERE of Aviva Biosciences, CHO-hERG was cultured under 5% CO2 at 37° C. hERGQPatch^HTX experiments were performed at room temperature. QPatch AssaySoftware 5.2 (Sophion Bioscience) software was used to establish whole-cell protocols, voltage stimulation protocols and compound detection protocols. First, the voltage stimulation was repeated for 30 times, this section was used as the baseline area for subsequent analysis, then 5 μL extracellular fluid was added and repeated three times. The effect concentrations of each compound were added one after the other, repeating three times by the addition of 5 μL volume. The cells were incubated at each test concentration for at least 5 mins. During the entire recording process, each indicator must meet the data analysis acceptance criteria, if the criterion is not met, the cell will not be counted in the analysis range, and the compound will be tested again, the above recording process is automatically operated by Qpatch analysis software. […] In each complete current record, based on the percentage of peak current in the negative control group, the percentage inhibition of the effect concentration of each compound can be calculated. […]
On the technique in general: hERG is a cardiac potassium channel; its block is linked to QT prolongation.

For data set [1], the system named is bleomycin-induced rat pulmonary fibrosis. The data set is described as follows: Pharmacodynamics in rats: bleomycin-induced unilateral (left lung) pulmonary fibrosis model. The format is in vivo, SD rats. The settings on record: for Percentage of pulmonary fibrosis score vs. model group (FIG. 2): Ashcraft score, boundary at 3 (3 or below vs. 4 or above). As for the experimental part: Animals in each group started to be administered orally by gavage on the 8th day of modeling for a total of 14 days. All animals were euthanized the next day after the last administration, and the left lung was taken, and the same amount of formalin solution was infused into the lungs, the lung fibrosis score was analyzed by weighing and lung pathology.
Masson Trichrome staining was used for pathological evaluation of pulmonary fibrosis lesion area, pulmonary fibrosis pathology score, and fibrosis grade parameters for left lung pulmonary fibrosis lesions. […] (FIG. 2).

For another data set, the target named is ROCK protein kinase. The data set is described as follows: Evaluation of ROCK protein kinase inhibitory activity in vitro (33P-ATP filter-binding). In kind it is biochemical. The settings on record: 1 nM ROCK, 20 μM Long S6 Kinase substrate peptide, room temperature, two hours. As to the method:
Evaluation of ROCK Protein Kinase Inhibitory Activity In Vitro
Experimental object: detecting the inhibitory IC50 value of ROCK protein kinase of the compounds.
Assay buffer solution: 20 mM Hepes (pH 7.5), 10 mM MgCl2, 1 mM EGTA, 0.02% Brij35, 0.02 mg/ml BSA, 0.1 mM Na3VO4, 2 mM DTT, 1% DMSO
ROCK protein kinase substrate Long S6 Kinase substrate peptide was added to the freshly prepared buffer solution at a concentration of 20 μM. Then 1 nM ROCK protein kinase was added and stirred evenly. […] After pre-incubating at room temperature for 20 minutes, ^33P-ATP (radiation intensity 10 μCi/μL) was added to initiate the reaction and the reaction was carried out at room temperature for two hours. […] The Filter-Binding method was used to detect radiation intensity.
The protein kinase inhibitory activity of the compound was expressed as the residual protein kinase activity of a relatively blank substrate (DMSO alone). IC50 values and curves were calculated using Prism software package (GraphPad Software, san Diego Calif., USA).

Data set [2] in a line: Evaluation of pharmacokinetics in rats. In kind it is in vivo. The settings on record: rat, plasma, male SD rats, single administration, groups 2 mg/kg intravenous and 10 mg/kg oral gavage, route for this parameter not stated. As to the method: Evaluation of Pharmacokinetics in Rats Male SD rats were used as test animals, after a single administration, the blood concentrations of the compounds were measured and the pharmacokinetic behavior was evaluated. Six healthy adult male SD rats (7-10 weeks of age, purchased from Shanghai Slack Experimental Animal Co., Ltd.) were randomly divided into two groups of three animals each, and one group was administered the test compound intravenously at 2 mg/kg, the other group was administered orally by gavage the test compound at 10 mg/kg. The vehicle in the intravenous administration group and the gastric administration group was both 10% DMSO+18% HP-β-CD+72% physiological saline. Blood samples were collected from the animals in the intravenous group at 0.0833, 0.25, 0.5, 1, 2, 4, 8, and 24 hours after the administration, and blood samples were collected from the animals in the gavage group at 0.25, 0.5, 1, 2, 4, 6, 8 and 24 hours after the administration. LCMS-MS method was used to determine the plasma drug concentration. WinNonlin™ version 6.3 (Pharsight Mountain View, Calif.) pharmacokinetic software was used to calculate the relevant pharmacokinetic parameters by non-compartment model logarithmic trapezoid method.

Setting [3] is: positive drugs: nintedanib 100 and 30 mg/kg/d-qd, pirfenidone 50 and 15 mg/kg/d-bid, oral gavage, 14 days, p<0.05.

The text below walks through data of patent publication US11155559B2, “Sulfonyl-substituted isoquinolines as inhibitors of RHO kinase and hERG potassium channel activity” (CHINA RESOURCES PHARMACEUTICAL HOLDINGS COMPANY LIMITED, priority 2017, dated 2021).

The structures appear in SMILES notation.

Sequence of hERG potassium channel (Q12809 whole entry): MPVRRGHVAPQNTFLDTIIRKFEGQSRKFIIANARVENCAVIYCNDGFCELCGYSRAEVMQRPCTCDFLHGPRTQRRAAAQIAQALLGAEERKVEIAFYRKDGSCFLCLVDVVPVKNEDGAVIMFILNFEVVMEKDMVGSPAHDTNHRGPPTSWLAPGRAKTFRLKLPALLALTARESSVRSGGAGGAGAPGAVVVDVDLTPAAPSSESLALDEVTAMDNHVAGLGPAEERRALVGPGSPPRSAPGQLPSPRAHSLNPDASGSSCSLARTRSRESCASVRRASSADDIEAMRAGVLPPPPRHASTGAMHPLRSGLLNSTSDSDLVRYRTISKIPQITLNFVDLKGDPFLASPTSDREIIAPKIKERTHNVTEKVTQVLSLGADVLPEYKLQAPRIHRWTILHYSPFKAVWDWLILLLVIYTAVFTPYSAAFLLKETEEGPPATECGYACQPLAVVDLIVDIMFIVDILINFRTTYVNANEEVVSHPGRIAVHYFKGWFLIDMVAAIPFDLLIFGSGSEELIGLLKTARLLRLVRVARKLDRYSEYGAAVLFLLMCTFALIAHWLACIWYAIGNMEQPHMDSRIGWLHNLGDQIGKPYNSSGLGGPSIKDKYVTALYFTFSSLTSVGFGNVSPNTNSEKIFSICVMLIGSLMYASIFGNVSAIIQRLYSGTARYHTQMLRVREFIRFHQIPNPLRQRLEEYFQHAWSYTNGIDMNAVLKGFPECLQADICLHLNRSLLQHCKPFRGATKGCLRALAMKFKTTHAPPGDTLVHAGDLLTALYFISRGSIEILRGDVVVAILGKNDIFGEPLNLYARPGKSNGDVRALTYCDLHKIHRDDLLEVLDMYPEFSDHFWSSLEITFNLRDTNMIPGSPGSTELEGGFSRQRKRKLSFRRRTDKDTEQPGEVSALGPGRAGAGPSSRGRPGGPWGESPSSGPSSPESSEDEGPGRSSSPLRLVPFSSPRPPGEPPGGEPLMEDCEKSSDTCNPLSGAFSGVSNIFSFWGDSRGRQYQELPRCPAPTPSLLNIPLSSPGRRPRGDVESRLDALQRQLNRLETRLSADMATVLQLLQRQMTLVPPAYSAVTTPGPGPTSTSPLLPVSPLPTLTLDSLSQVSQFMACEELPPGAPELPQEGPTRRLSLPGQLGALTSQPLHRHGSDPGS

Usually IC50 stands for the midpoint of a concentration-inhibition curve. As for `Cc1cncc2cccc(S(=O)(=O)N3C[C@@H]4CCN[C@@H]4C3)c12` [Embodiment 38 (WO2015/165341), reference compound], the IC50 on hERG potassium channel was determined as 4600 nM.

Take `O=S(=O)(c1cccc2cnccc12)N1CCCNCC1` [Fasudil, reference compound]: in data set [1] (oral, once a day at 25 mg/kg, 14 consecutive days, p<0.001), the “Pulmonary fibrosis Ashcraft score vs. model group (FIG. 1)” value was “achieved the same effect as the positive drug in inhibiting pulmonary fibrosis”.

At ROCK protein kinase, `O=S(=O)(c1cccc2cnccc12)N1CC2CCNC2C12CC2` (stereo not shown) [embodiment 1] returned an IC50 of 20 nM.

On ROCK protein kinase, `O=S(=O)(c1cccc2cncc(Cl)c12)N1CC2CCNC2C12CC2` (stereo not shown) [embodiment 2] registered an IC50 of 32 nM.

Compound `O=S(=O)(c1cccc2cncc(F)c12)N1CC2CCNC2C12CC2` (stereo not shown) [embodiment 3] showed an IC50 at ROCK protein kinase of 93 nM.

`CC1C2NCCC2CN1S(=O)(=O)c1cccc2cncc(F)c12` (stereo not shown) [embodiment 6-1]: the 50% inhibitory concentration (IC50) at ROCK protein kinase worked out at 65 nM.

`CC1C2NCCC2CN1S(=O)(=O)c1cccc2cncc(F)c12` (stereo not shown) [embodiment 6-2] gave an IC50 on ROCK protein kinase of 8 nM.

Take `CC1C2NCCC2CN1S(=O)(=O)c1cccc2cncc(F)c12` (stereo not shown) [embodiment 6]: the IC50 is 12 nM at ROCK protein kinase and more than 30000 nM on hERG potassium channel. In addition, the clearance in data set [2] (read-out: Clearance rate (Cl)) worked out at 43.8 mL/min/kg. In data set [2] (read-out: Half-life period (T1/2) (converted)), the half-life is 1.12 h. In addition, the “Percentage of pulmonary fibrosis score vs. model group (FIG. 2)” value (shortened to “Percentage”) in data set [1] (oral gavage, 14 days) was “significant statistical difference compared with the model group”. In addition, the “Lowest dose effective in inhibiting pulmonary fibrosis” value in data set [1] (administered continuously for two weeks) was not above 1 mg/kg BID. In data set [1] (compared with nintedanib, pirfenidone and fasudil), the “Pulmonary fibrosis-improving effect compared with reference drugs” value is “comparable to that of nintedanib, pirfenidone, and fasudil at lower doses”. Moreover, the “Pulmonary fibrosis Ashcraft score vs. model group (FIG. 1)” value in data set [1] (oral, once a day at 3 mg/kg, 14 days, consistent with the same dose twice daily) is reported as “significant effect on inhibiting pulmonary fibrosis”; in data set [1] (oral, twice a day at three doses (1, 3, 10 mg/kg/d-bid), 14 consecutive days, p<0.001) it was “significant inhibition of pulmonary fibrosis”.

With `CC1C2NCCC2CN1S(=O)(=O)c1cccc2cnccc12` (stereo not shown) [embodiment 7-1], the IC50 at ROCK protein kinase was 63 nM.

As to `CC1C2NCCC2CN1S(=O)(=O)c1cccc2cnccc12` (stereo not shown) [embodiment 7-2], the IC50 on ROCK protein kinase was found to be 15 nM.

On ROCK protein kinase, `CC1C2NCCC2CN1S(=O)(=O)c1cccc2cnccc12` (stereo not shown) [embodiment 7] came in with an IC50 of 28 nM.

On ROCK protein kinase, `Cc1cncc2cccc(S(=O)(=O)N3CC4CCNC4C3C)c12` (stereo not shown) [embodiment 8] came in with an IC50 of 18 nM.

`CC1C2NCCC2CN1S(=O)(=O)c1cccc2c(O)ncc(F)c12` (stereo not shown) [embodiment 10] displayed an IC50 on ROCK protein kinase of 783 nM.

As for `COC(=O)c1ccc2c(c1)NC(=O)/C2=C(\Nc1ccc(N(C)C(=O)CN2CCN(C)CC2)cc1)c1ccccc1` [nintedanib, reference compound], the “Percentage” value in data set [1] (oral gavage, 14 days) is given as “significant differences compared with the model group”. Moreover, the “Pulmonary fibrosis Ashcraft score vs. model group (FIG. 1)” value in data set [1] (setting [3]) was “significantly improved the degree of pulmonary fibrosis”.

Turning to `Cc1ccc(=O)n(-c2ccccc2)c1` [pirfenidone, reference compound], the “Percentage” value in data set [1] (oral gavage, 14 days) is reported as “significant differences compared with the model group”. In addition, the “Pulmonary fibrosis Ashcraft score vs. model group (FIG. 1)” value in data set [1] (setting [3]) is on record as “significantly improved the degree of pulmonary fibrosis”.
